This note sets out measurements from article PMC4043716 (Drug Design, Development and Therapy, 2014).

Structures are written as SMILES. Where two headings read alike, the source gives them in different places.

Data set [1] is classed as cell-based. As to conditions: rat, PC12 cells.
For data set [2], the system named is NIH3T3 cells. The format is cell-based, mouse. As to conditions: 1 μM staurosporine alone, 24 hours.
The subject of data set [3] is caspase-3/7. In words: Apo-ONE Homogeneous Caspase-3/7 Assay in NIH3T3 cells. It counts as cell-based, mouse. The following applies: 1 μM staurosporine alone, 6 hours.
The subject of data set [4] is NIH3T3 cells. Briefly: MTT cell proliferation assay. The format is cell-based, mouse. As to conditions: 1 μM staurosporine alone, 24 hours. (In general: Tetrazolium dyes change colour on reduction, which living cells bring about.)
Data set [5] is classed as cell-based. The following applies: human, U87MG cells.
The test system of data set [6] is NIH3T3 cells. Briefly: JC-10 mitochondrial membrane potential assay. The format is cell-based, mouse. As to conditions: 1 μM staurosporine alone, 6 hours.
The format of data set [7] is cell-based. The following applies: human, SH-SY5Y cells.

With `CN[C@@H]1C[C@H]2O[C@@](C)([C@@H]1OC)n1c3ccccc3c3c4c(c5c6ccccc6n2c5c31)C(=O)NC4` [staurosporine], the values for the viability at 24 h, 1 μM in data set [1], in data set [5] and in data set [7] were 4%, 8% and 6%, respectively. In addition, the Cell death result in data set [2] is listed as “over 90%”. For the same molecule, the “Caspase activation (caspase-3/7 activity)” value in data set [3] was “induced significant caspase activation”. Besides, the “Cell viability by MTT” value in data set [4] is “reduced the cell viability dramatically”. Further, the Mitochondrial membrane potential entry in data set [6] is “significantly lost mitochondrial membrane potential”.
